# Marks after values point to notes of the source that are not given here.
# Assays:
# Lewis lung carcinoma [1] = test: In vivo potentiating effect of Formulation A on paclitaxel against Lewis lung cancer-bearing mice; details: for CTW (estimated weight) / T/C (estimated weight) / T/C (real weight) / TGI (estimated weight) / TGI (real weight) / Tumor weight (real weight): i.v. day 1 to 4, day 18
# Protocol: (§1) Cells: The Lewis lung carcinoma cell line was used (#CRL-1642, lot #4372266, ATCC). […] Cells were then harvested with up and down only. Cells were counted using a hemacytometer and resuspended in DMEM medium without SVF.
# Mice: 6-weeks old C57BL/6 male mice were used Charles Rivers Inc., St-Constant, QC). […] The mice of each group (n=10) were treated with a volume of 100 μL containing saline, Formulation A (see Example 5), paclitaxel or combination of the Formulation A with paclitaxel.
# (§2) Inoculation: 100 μL of a solution containing 1×10^7 cells/mL were inoculated subcutaneously in each mouse.
# Treatment: Lewis lung carcinoma cells were inoculated subcutaneous on C57BL/6 mice on day 0. The potentiating effect of the Formulation A combined with paclitaxel was evaluated against Lewis lung carcinoma-bearing mice (C57BL/6). The mice of each group (n=10) were treated with a volume of 100 μL containing saline, Formulation A, paclitaxel or a combination of Formulation A with paclitaxel in doses presented in Table 10 below: The treatments were administered intravenous on day 1 to 4. The length and the width of tumor were measured with calliper on day 8 to day 18. In the end of the experiment (day 18), the tumors were extracted and weighed.
# Values of p<0.05 were considered statistically significant.
# (b) Tumor weight (TW): The TW of each tumor was measured on day 18 after the sacrifice of each mouse. TW values were averaged within each group. […] Values of p<0.05 were considered statistically significant.
# [2] = test system: MDA-MB-231 (breast cancer); test: Chou and Talalay combination assay with beta-caryophyllene; format: cell-based, human; details: anticancer drug in combination with beta-caryophyllene; Chou and Talalay CI; 48 h
# Outline: (§3)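 Combination effects are expressed as Chou and Talalay combination index (CI<1 potentiating, CI=1 additive, CI>1 antagonist). Inputs were 48 h cytotoxicity values from resazurin fluorescence in cells grown in DMEM with 10% FBS.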
# A-549 (lung cancer) = test: as above; format: cell-based, human; details: anticancer drug in combination with beta-caryophyllene; Chou and Talalay CI; 48 h
# Outline: as §3
# MCF-7 (breast cancer) = test: as above; format: cell-based, human; details: anticancer drug in combination with beta-caryophyllene; Chou and Talalay CI; 48 h
# Outline: as §3
# PA-1 (ovary cancer) = test: as above; format: cell-based, human; details: anticancer drug in combination with beta-caryophyllene; Chou and Talalay CI; 48 h
# Outline: as §3
# DLD-1 (colon cancer) = test: as above; format: cell-based, human; details: anticancer drug in combination with beta-caryophyllene; Chou and Talalay CI; 48 h
# Outline: as §3
# [3] = test system: GL-261 (murine glioblastoma); test: as above; format: cell-based; details: anticancer drug in combination with beta-caryophyllene; Chou and Talalay CI; 48 h
# Outline: as §3
# [4] = test system: U-251 (human glioblastoma); test: as above; format: cell-based; details: anticancer drug in combination with beta-caryophyllene; Chou and Talalay CI; 48 h
# Outline: as §3
# MEL-2 (human melanoma) = test: as above; format: cell-based; details: anticancer drug in combination with beta-caryophyllene; Chou and Talalay CI; 48 h
# Outline: as §3
# B16 (murine melanoma) = test: as above; format: cell-based; details: anticancer drug in combination with beta-caryophyllene; Chou and Talalay CI; 48 h
# Outline: as §3
# [5] = test system: Panc 05.04 (pancreas cancer); test: as above; format: cell-based, Human; details: in combination with beta-caryophyllene in ethanol (40-150 mM), 48 h
# Protocol: Agent: […] Each solution was prepared fresh and use within 1 hour after preparation. 5 μL of each test article were added to 1 mL of culture medium for a final concentration of 0.5% of solvent and this concentration have no toxic effect on cells. Cells: The Panc 05.04 cell line was used. Cells were harvested using trypsine-EDTA. […] Cells were plated in 96-well microplates (BD Falcon) at a density of 7.5×10^3 cells per well for Chou and Talalay assay in 100 μL of culture medium and were allowed to adhere for 24 hours before treatment. Proliferation assay: Increasing concentrations of the anticancer agents and/or beta-caryophyllene were added to 96-well plate (100 μL per well). The final concentration of solvent in the culture medium was maintained below 0.5% (volume/volume) to avoid solvent toxicity. […] The cells were incubated for 48 h at 37° C. and 5% CO2. Cytotoxicity was assessed using the resazurin reduction test (8). […] Resazurin was then removed. Data analysis: Results were analyzed using the Chou and Talalay method (9) and may be interpreted as follow: […]
# [6] = Toxicity of Formulation A and/or Taxotere treatments (body weight) on Lewis lung cancer-bearing mice; details: for Loss of weight > 20% (n = 10): day 1 to day 8
# Protocol: The toxicity of the treatments described in Table 7 above was determined using the body weight of mice.
# Lewis lung carcinoma [7] = test: In vivo potentiating effect of Formulation A on Taxotere against Lewis lung cancer-bearing mice; details: i.v. days 1-4, day 18
# Protocol: as §1
# Mice: 6-weeks old C57BL/6 male mice were used (Charles Rivers Inc., St-Constant, QC).
# as §2
# The mice of each group (n=10) were treated with a volume of 100 μL containing saline, Formulation A of Example 5 above (hereinafter referred to as Formulation A), Taxotere™ or a combination of Formulation A with Taxotere™ in doses presented in Table 7 below: […]
# Values of p<0.05 were considered statistically significant. The length and the width of tumor were measured with calliper on day 10 to day 18.
compound,measurement,setting,value
"CC(=O)O[C@H]1C(=O)[C@@]2(C)[C@H]([C@H](OC(=O)c3ccccc3)[C@]3(O)C[C@H](OC(=O)[C@H](O)[C@@H](NC(=O)c4ccccc4)c4ccccc4)C(C)=C1C3(C)C)[C@]1(OC(C)=O)CO[C@@H]1C[C@@H]2O [Paclitaxel, paclitaxel]",CTW (estimated weight),Lewis lung carcinoma [1]; paclitaxel 10 mg/kg,568 ± 155 mg
same,T/C (estimated weight),Lewis lung carcinoma [1]; paclitaxel 10 mg/kg,81%
same,T/C (real weight),Lewis lung carcinoma [1]; paclitaxel 10 mg/kg,87%
same,TGI (estimated weight),Lewis lung carcinoma [1]; paclitaxel 10 mg/kg,19%
same,TGI (real weight),Lewis lung carcinoma [1]; paclitaxel 10 mg/kg,13%
same,Tumor weight (real weight),Lewis lung carcinoma [1]; paclitaxel 10 mg/kg,410 ± 90 mg
same,CTW (estimated weight),Lewis lung carcinoma [1]; paclitaxel 20 mg/kg,510 ± 274 mg
same,T/C (estimated weight),Lewis lung carcinoma [1]; paclitaxel 20 mg/kg,73%
same,T/C (real weight),Lewis lung carcinoma [1]; paclitaxel 20 mg/kg,91%
same,TGI (estimated weight),Lewis lung carcinoma [1]; paclitaxel 20 mg/kg,27%
same,TGI (real weight),Lewis lung carcinoma [1]; paclitaxel 20 mg/kg,9%
same,Tumor weight (real weight),Lewis lung carcinoma [1]; paclitaxel 20 mg/kg,420 ± 350 mg
same,CTW (estimated weight),Lewis lung carcinoma [1]; paclitaxel 30 mg/kg,"446 ± 118^c,d mg"
same,T/C (estimated weight),Lewis lung carcinoma [1]; paclitaxel 30 mg/kg,64%
same,T/C (real weight),Lewis lung carcinoma [1]; paclitaxel 30 mg/kg,81%
same,TGI (real weight),Lewis lung carcinoma [1]; paclitaxel 30 mg/kg,19%
same,Tumor weight (real weight),Lewis lung carcinoma [1]; paclitaxel 30 mg/kg,380 ± 200 mg
same,effect on tumor growth (in words),Lewis lung carcinoma [1]; paclitaxel 10 and 20 mg/kg alone,do not inhibit significantly tumor growth
same,Potentiating activity MDA,[2],(3) (Moderate: 0.5 < CI < 0.8 at IC50)
same,Potentiating activity A-549,A-549 (lung cancer),(3) (Moderate: 0.5 < CI < 0.8 at IC50)
same,Potentiating activity MCF-7,MCF-7 (breast cancer),(1) (Very High: CI equal or below 1 at IC20 and Cl below 0.6 to IC50)
same,Potentiating activity PA-1,PA-1 (ovary cancer),(2) (High: CI < 0.5 to IC50)
same,Potentiating activity DLD-1,DLD-1 (colon cancer),(2) (High: CI below 0.5 at IC50)
same,Potentiating activity GL-261,[3],(2) (High: CI < 0.5 to IC50)
same,Potentiating activity U-251,[4],(1) (Very High: potentiating or additive activity to IC20 and CI < 0.6 to IC50)
same,Potentiating activity MEL-2,MEL-2 (human melanoma),(3) (Moderate: 0.5 < CI < 0.8 to IC50)
same,Potentiating activity B16,B16 (murine melanoma),(1) (Very High: potentiating or additive activity to IC20 and CI < 0.6 to IC50)
same,Potentiating activity Panc 05.04,[5],Potentiating > IC80
"CC(=O)O[C@@]12CO[C@@H]1C[C@H](O)[C@@]1(C)C(=O)[C@H](O)C3=C(C)[C@@H](OC(=O)[C@H](O)[C@@H](NC(=O)OC(C)(C)C)c4ccccc4)C[C@@](O)([C@@H](OC(=O)c4ccccc4)[C@H]21)C3(C)C [Taxotere ™, docetaxel]",loss of weight (day 7) with regard to the initial weight (day 1),[6]; Taxotere 5 mg/kg,about 0.55%
same,Loss of weight > 20% (n = 10),[6]; Taxotere 5 mg/kg,0
same,loss of weight (day 7) with regard to the initial weight (day 1),[6]; Taxotere 10 mg/kg,~3.33%
same,Loss of weight > 20% (n = 10),[6]; Taxotere 10 mg/kg,0
same,loss of weight (day 7) with regard to the initial weight (day 1),[6]; Taxotere 15 mg/kg,about 13%
same,Loss of weight > 20% (n = 10),[6]; Taxotere 15 mg/kg,7
same,Potentiating activity Panc 05.04,[5],Potentiating > IC10
same,CTW,Lewis lung carcinoma [7]; Taxotere 5 mg/kg,380 ± 116 mg
same,T/C,Lewis lung carcinoma [7]; Taxotere 5 mg/kg,89%
same,TGI,Lewis lung carcinoma [7]; Taxotere 5 mg/kg,11%
same,TGI,"Lewis lung carcinoma [7]; Taxotere 5 mg/kg, listed as Taxotere™",about 11%
same,CTW,Lewis lung carcinoma [7]; Taxotere 10 mg/kg,346 ± 107 mg
same,T/C,Lewis lung carcinoma [7]; Taxotere 10 mg/kg,81%
same,TGI,Lewis lung carcinoma [7]; Taxotere 10 mg/kg,19%
same,CTW,Lewis lung carcinoma [7]; Taxotere 15 mg/kg,178 ± 112^c mg
same,T/C,Lewis lung carcinoma [7]; Taxotere 15 mg/kg,42%
same,TGI,Lewis lung carcinoma [7]; Taxotere 15 mg/kg,58%
same,TGI,"Lewis lung carcinoma [7]; Taxotere 15 mg/kg, listed as Taxotere™",about 58%

# Source: patent US20110008465A1, “SESQUITERPENE FORMULATIONS, KITS AND METHODS OF USE THEREOF” (priority 2007, published 2011)
